For data set [1], the system named is amyloid deposits in murine AD neuronal tissue. The experiment in a line: Tissue staining of amyloid deposits in AD mouse brain sections. Conditions: for fluorescence labeling of amyloid deposits in hippocampal brain sections: mouse model for Alzheimer's disease, FIG. 13; for staining of amyloid deposits in murine AD neuronal tissue: figure legends.
Data set [2] concerns amyloids derived from amyloid-β, PrP, and α-synuclein. It is filed as binding.
Data set [3] is described as follows: Hydrolytic decomposition in PBS by HPLC. It is filed as physicochemical. Conditions: PBS with 5% DMSO, 25° C., read-out: t1/2 for hydrolysis (converted). From the text:
In certain in vivo environments (especially at high or low pH or in the presence of esterases), ANCA-11 is expected to decompose very rapidly due to the poor stability of its ester functionality. The amide functionality in Compound 1 alleviates the problem of hydrolytic instability inherent to ANCA-11.

Data set [4] deals with aggregated Aβ(1-42) peptide (Homo sapiens, UniProt P05067). Conditions: in vitro; characteristic fluorescence upon binding to Alzheimer's related amyloids.
Data set [5] relates to prion amyloid deposits in the retina.
The nature of another data set: Solubility studies. Conditions: lower pH and higher buffer concentration.
The target of data set [6] is amyloid deposits in the retina (Homo sapiens, UniProt P05067). In words: Ex vivo retina analysis of J20 mice after systemic (tail vein) dosing. Conditions: J20 mouse, 30 minutes prior to sacrifice, co-localizes with anti-Aβ antibody.

Structures are written as SMILES. Converted amounts (≈) assume the structure as drawn.

Seven compounds from patent US11718596B2, “Amyloid targeting agents and methods of using the same” (The Regents of the University of California, priority 2014, dated 2023) can be followed below.

Sequence of amyloid deposits in the retina (P05067 672-713 limits assumed): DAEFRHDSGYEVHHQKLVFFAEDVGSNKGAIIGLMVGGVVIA
Sequence of aggregated Aβ(1-42) peptide (P05067 672-713): as the sequence (P05067 672-713 limits assumed) above

`COCCOCCOCCNS(=O)(=O)/C(C#N)=C/c1ccc2cc(N3CCCCC3)ccc2c1` [Compound 2, (E)-1-cyano-N-(2-(2-(2-methoxyethoxy)ethoxy)ethyl)-2-(6-(piperidin-1-yl)naphthalen-2-yl)ethenesulfonamide]: the “fluorescence labeling of amyloid deposits in hippocampal brain sections” value in data set [1] is “fluorescence labeling of amyloid deposits”.
In the case of `COCCOCCOCCNC(=O)/C(C#N)=C/c1ccc2cc(N3CCCCC3)ccc2c1` [Compound 1, (E)-2-Cyano-N-(2-(2-(2-methoxyethoxy)ethoxy)ethyl)-3-(6-(piperidin-1-yl)naphthalen-2-yl)acrylamide], in data set [2], the “discrimination of amyloids of different disease origin based on color of emission” value is given as “can distinguish between amyloids of different disease origin based on color of emission”. Besides, in data set [1], the “fluorescence labeling of amyloid deposits in hippocampal brain sections” value was “fluorescence labeling of amyloid deposits”. Moreover, in data set [3], the half-life is ~150 h. Further, the “ability to bind selectively to amyloids” value in data set [4] is on record as “bind selectively to amyloids”. The “visualization of amyloid deposits in the retina of live mice” value in data set [5] (mice inoculated with GPI-anchorless PrP, intraperitoneal injection) was “allowed for the visualization of amyloid deposits in the retina”. In data set [5] (wt mouse, fluorescence image immediately after IP injection), the “accumulation in blood and retinal tissue after IP injection” value is “immediately accumulates in the blood and in the retinal tissue”. In addition, the solubility in the data set “physchem” (aqueous buffer, solubility at lower pH and higher acidic buffer strength) was > 6000 µg/mL; in the data set “physchem” (aqueous with cosolvent or surfactant or cyclodextrin, solubility in surfactants), > 5000 µg/mL; in “physchem” (aqueous with cosolvent or surfactant or cyclodextrin, solubility in the other water miscible solvents listed), 2000 to 3000 µg/mL (≈ 4.43 to 6.64 mM); in the data set “physchem” (oil or lipid, solubility in all oils tested) it was > 5000 µg/mL; in “physchem” (organic solvent or mixture, Solubility (mg/mL)), 20000 µg/mL (≈ 44.3 mM); in the data set “physchem” (organic solvent or mixture, solubility in water miscible solvents: alcohols), > 5000 µg/mL. Also, the solubility was ≤ 350 µg/mL in “physchem” (pH 2, aqueous buffer, solubility in acid buffers); 1630 µg/mL (≈ 3.61 mM) in the data set “physchem” (pH 2.5, aqueous buffer, Conc (mg/mL)); 7.4 µg/mL (≈ 0.0164 mM) in “physchem” (pH 7.4, aqueous buffer, Conc (mg/mL)); 3.1 µg/mL (≈ 0.00686 mM) in the data set “physchem” (water, Conc (mg/mL)); 3 µg/mL (≈ 0.00664 mM) in “physchem” (water, solubility in water). For the same compound, in the data set “Solubility studies”, the “fold increase of solubility in acid buffer vs water” value was found to be 100 fold. Moreover, the “crossing of the blood-retina barrier” value in data set [6] is listed as “can cross the blood-retina barrier”.
`N#C/C(=C\c1ccc2cc(N3CCCCC3)ccc2c1)C(=O)NCC(O)CO` (stereo not shown) [Compound 5, (E)-2-cyano-N-(2,3-dihydroxypropyl)-3-(6-(piperidin-1-yl)naphthalen-2-yl)acrylamide]: in data set [1], the “staining of amyloid deposits in murine AD neuronal tissue” value is “staining of amyloid deposits”.
Same read-out and setting: as for `COC1OC(Cn2cc(CNC(=O)/C(C#N)=C/c3ccc4cc(N5CCCCC5)ccc4c3)nn2)C(O)C(O)C1O` (stereo not shown) [Compound 20, (E)-2-cyano-3-(6-(piperidin-1-yl)naphthalen-2-yl)-N-((1-((3,4,5-trihydroxy-6-methoxytetrahydro-2H-pyran-2-yl)methyl)-1H-1,2,3-triazol-4-yl)methyl)acrylamide], the entry is “staining of amyloid deposits”.
On the same count and under the same terms, under `COC1OC(Cn2cc(COCCOCCOCCNC(=O)/C(C#N)=C/c3ccc4cc(N5CCCCC5)ccc4c3)nn2)C(O)C(O)C1O` (stereo not shown) [Compound 19, (E)-2-cyano-3-(6-(piperidin-1-yl)naphthalen-2-yl)-N-(2-(2-(2-((1-((3,4,5-trihydroxy-6-methoxytetrahydro-2H-pyran-2-yl)methyl)-1H-1,2,3-triazol-4-yl)methoxy)ethoxy)ethoxy)ethyl)acrylamide] stands “staining of amyloid deposits”; under `COCCOCCOCCOCCOCCOCCNC(=O)/C(C#N)=C/c1ccc2cc(N3CCCCC3)ccc2c1` [Compound 3, (E)-2-cyano-N-(2,5,8,11,14,17-hexaoxanonadecan-19-yl)-3-(6-(piperidin-1-yl)naphthalen-2-yl)acrylamide], “staining of amyloid deposits”.
`COCCOCCOCCOC(=O)/C(C#N)=C/c1ccc2cc(N3CCCCC3)ccc2c1` [ANCA-11, (E)-2-(2-(2-methoxyethoxy)ethoxy)ethyl 2-cyano-3-(6-(piperidin-1-yl)naphthalen-2-yl)acrylate, reference compound]: the half-life in data set [3] is ~11 h.

As a reminder, the solubility is the dissolved amount per volume that the medium holds.
